By pIC50 is commonly meant the negative decadic logarithm of the IC50, by convention in mol/L.

The experiment deals with PDE9 (Homo sapiens, UniProt O76083). Nature of the experiment: PDE9 inhibition assay. In kind it is biochemical. On the procedure:
Reactions are initiated by addition of the cyclic nucleotide substrate, and reactions are allowed to proceed for one hr at room temperature before being terminated through mixing with 15 uL 8 mg/mL yttrium silicate SPA beads (Amersham). […] IC50 values were calculated by non linear regression using XLfit (IDBS).

Where [1] appears, read: SPA assay, 10 nM 3H-cAMP, 1 hour incubation, read-out: IC50.

Molecules are shown by their SMILES. pIC50: −log10 of the molar value. Where two headings read alike, the source gives them in different places.

PDE9, sequence (O76083 whole entry): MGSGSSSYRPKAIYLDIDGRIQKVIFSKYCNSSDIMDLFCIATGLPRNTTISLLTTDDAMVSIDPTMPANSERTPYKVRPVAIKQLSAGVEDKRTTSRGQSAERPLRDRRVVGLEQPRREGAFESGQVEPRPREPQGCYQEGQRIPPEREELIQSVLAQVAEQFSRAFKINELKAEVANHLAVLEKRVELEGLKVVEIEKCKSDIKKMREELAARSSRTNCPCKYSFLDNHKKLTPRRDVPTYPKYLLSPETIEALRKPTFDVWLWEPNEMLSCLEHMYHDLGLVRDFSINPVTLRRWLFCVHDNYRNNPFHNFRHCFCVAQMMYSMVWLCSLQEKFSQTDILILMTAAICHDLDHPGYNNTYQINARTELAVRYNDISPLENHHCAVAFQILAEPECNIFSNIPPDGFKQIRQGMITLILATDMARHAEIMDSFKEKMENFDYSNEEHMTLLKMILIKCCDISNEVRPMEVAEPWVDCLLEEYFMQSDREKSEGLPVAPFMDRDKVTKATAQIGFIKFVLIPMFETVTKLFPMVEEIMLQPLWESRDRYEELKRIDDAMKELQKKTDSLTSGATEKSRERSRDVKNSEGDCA

On to `O=c1[nH]c(CN2CC(Oc3ncccn3)C2)cn2c(C3CCCC3)ncc12` [Compound 39, 3-cyclopentyl-6-[(3-pyrimidin-2-yloxyazetidin-1-yl)methyl]-7h-imidazo[1,5-a]pyrazin-8-one], for which the negative logarithm of the IC50 (pIC50) under setting [1] was 7.66.

Take `CC(c1cn2c(C3CCCC3)ncc2c(=O)[nH]1)N1CC(c2ccc(F)cc2)C1` (centres unmarked) [Compound 40, 3-cyclopentyl-6-[1-[3-(4-fluorophenyl)azetidin-1-yl]ethyl]-7h-imidazo[1,5-a]pyrazin-8-one]: under setting [1], the pIC50 was 8.30.

For the molecule `COc1ccc(C2CN(Cc3cn4c(C5CCCC5)ncc4c(=O)[nH]3)C2)cc1` [Compound 41, 3-cyclopentyl-6-[[3-(4-methoxyphenyl)azetidin-1-yl]methyl]-7h-imidazo[1,5-a]pyrazin-8-one], the pIC50 under setting [1] was 7.59.

Turning to `CC(c1cn2c(C3CCCC3)ncc2c(=O)[nH]1)N1CC(Oc2ncccn2)C1` (centres unmarked) [Compound 42, 3-cyclopentyl-6-[1-(3-pyrimidin-2-yloxyazetidin-1-yl)ethyl]-7h-imidazo[1,5-a]pyrazin-8-one], under setting [1], the pIC50 was 8.10.

For `CC1CN(Cc2ccccn2)CC1c1cn2c(-c3ccccc3)ncc2c(=O)[nH]1` (centres unmarked) [Compound 43, 6-[4-methyl-1-(2-pyridylmethyl)pyrrolidin-3-yl]-3-phenyl-7h-imidazo[1,5-a]pyrazin-8-one], under setting [1], the pIC50 is 7.85.

As for `O=c1[nH]c(CN2CC(c3ccc(F)cc3)C2)cn2c(C3CCOCC3)ncc12` [Compound 44, 6-[[3-(4-fluorophenyl)azetidin-1-yl]methyl]-3-tetrahydropyran-4-yl-7h-imidazo[1,5-a]pyrazin-8-one], the negative logarithm of the IC50 (pIC50) under setting [1] was 7.60.

As to `O=c1[nH]c(CN2CC(OCc3ccccc3)C2)cn2c(-c3ccc(F)cc3)ncc12` [Compound 45, 6-[(3-benzyloxyazetidin-1-yl)methyl]-3-(4-fluorophenyl)-7h-imidazo[1,5-a]pyrazin-8-one], the pIC50 under setting [1] is 9.00.

For the molecule `Cc1nc2ccccc2nc1OC1CN(Cc2cn3c(C4CCCC4)ncc3c(=O)[nH]2)C1` [Compound 46, 3-cyclopentyl-6-[[3-(3-methylquinoxalin-2-yl)oxyazetidin-1-yl]methyl]-7h-imidazo[1,5-a]pyrazin-8-one], the pIC50 under setting [1] is 8.22.

Turning to `CC(c1cn2c(C3CCCC3)ncc2c(=O)[nH]1)N1CC(Oc2ccc(F)cc2)C1` (centres unmarked) [Compound 47, 3-cyclopentyl-6-[1-[3-(4-fluorophenoxy)azetidin-1-yl]ethyl]-7h-imidazo[1,5-a]pyrazin-8-one], the negative logarithm of the IC50 (pIC50) was 8.52.

Turning to `CN(C)c1ccc(C2CN(Cc3cn4c(C5CCCC5)ncc4c(=O)[nH]3)C2)cc1` [Compound 48, 3-cyclopentyl-6-[[3-(4-dimethylaminophenyl)azetidin-1-yl]methyl]-7h-imidazo[1,5-a]pyrazin-8-one], the pIC50 under setting [1] is 7.40.

For the molecule `O=c1[nH]c(CN2CC(Oc3ccccc3F)C2)cn2c(-c3ccc(F)cc3)ncc12` [Compound 49, 6-[[3-(2-fluorophenoxy)azetidin-1-yl]methyl]-3-(4-fluorophenyl)-7h-imidazo[1,5-a]pyrazin-8-one], the pIC50 under setting [1] is 7.80.

`O=c1[nH]c(CN2CC(Oc3ccccc3F)C2)cn2c(C3CCOCC3)ncc12` [Compound 50, 6-[[3-(2-fluorophenoxy)azetidin-1-yl]methyl]-3-tetrahydropyran-4-yl-7h-imidazo[1,5-a]pyrazin-8-one] gave a pIC50 of 7.68.

For the molecule `CN(C)c1ccc(C2CN(Cc3cn4c(-c5ccc(F)cc5)ncc4c(=O)[nH]3)C2)cc1` [Compound 51, 6-[[3-(4-dimethylaminophenyl)azetidin-1-yl]methyl]-3-(4-fluorophenyl)-7h-imidazo[1,5-a]pyrazin-8-one], under setting [1], the pIC50 is 8.15.

`CC(c1cn2c(C3CCCC3)ncc2c(=O)[nH]1)N1CC(Oc2ccccc2F)C1` (centres unmarked) [Compound 52, 3-cyclopentyl-6-[1-[3-(2-fluorophenoxy)azetidin-1-yl]ethyl]-7h-imidazo[1,5-a]pyrazin-8-one]: the pIC50 under setting [1] was 7.31.

`O=c1[nH]c(CN2CC(c3ncccn3)C2)cn2c(-c3ccc(F)cc3)ncc12` [Compound 53, 3-(4-fluorophenyl)-6-[(3-pyrimidin-2-ylazetidin-1-yl)methyl]-7h-imidazo[1,5-a]pyrazin-8-one]: the pIC50 under setting [1] was 7.66.

As for `O=c1[nH]c(CN2CC(c3ncccn3)C2)cn2c(C3CCOCC3)ncc12` [Compound 54, 6-[(3-pyrimidin-2-ylazetidin-1-yl)methyl]-3-tetrahydropyran-4-yl-7h-imidazo[1,5-a]pyrazin-8-one], the pIC50 under setting [1] was 6.99.

As to `O=c1[nH]c(CN2CC(Oc3cnccn3)C2)cn2c(-c3ccc(F)cc3)ncc12` [Compound 55, 3-(4-fluorophenyl)-6-[(3-pyrazin-2-yloxyazetidin-1-yl)methyl]-7h-imidazo[1,5-a]pyrazin-8-one], the pIC50 under setting [1] was 8.05.

`O=c1[nH]c(CN2CC(OCc3ccccc3)C2)cn2c(C3CCCC3)ncc12` [Compound 56, 6-[(3-benzyloxyazetidin-1-yl)methyl]-3-cyclopentyl-7h-imidazo[1,5-a]pyrazin-8-one] gave a pIC50 of 7.30.

`CC(C)OC1CN(Cc2cn3c(C4CCCC4)ncc3c(=O)[nH]2)C1` [Compound 57, 3-cyclopentyl-6-[(3-isopropoxyazetidin-1-yl)methyl]-7h-imidazo[1,5-a]pyrazin-8-one]: the pIC50 is 7.77.

For the molecule `CC(C)COC1CN(Cc2cn3c(C4CCCC4)ncc3c(=O)[nH]2)C1` [Compound 58, 3-cyclopentyl-6-[(3-isobutoxyazetidin-1-yl)methyl]-7h-imidazo[1,5-a]pyrazin-8-one], the pIC50 was 8.40.

Consider `CC(c1cn2c(C3CCCC3)ncc2c(=O)[nH]1)N1CC(c2ccc(N(C)C)cc2)C1` (centres unmarked) [Compound 59, 3-cyclopentyl-6-[1-[3-(4-dimethylaminophenyl)azetidin-1-yl]ethyl]-7h-imidazo[1,5-a]pyrazin-8-one], for which the pIC50 was 7.24.

On to `O=c1[nH]c(CN2CC(Oc3cccc(F)n3)C2)cn2c(-c3ccc(F)cc3)ncc12` [Compound 60, 3-(4-fluorophenyl)-6-[[3-[(6-fluoro-2-pyridyl)oxy]azetidin-1-yl]methyl]-7h-imidazo[1,5-a]pyrazin-8-one], for which the negative-log IC50 (pIC50) under setting [1] was 6.79.

In turn, `O=c1[nH]c(CN2CC(c3ccccn3)C2)cn2c(-c3ccc(F)cc3)ncc12` [Compound 61, 3-(4-fluorophenyl)-6-[[3-(2-pyridyl)azetidin-1-yl]methyl]-7h-imidazo[1,5-a]pyrazin-8-one] had a pIC50 of 7.10.

In the case of `O=c1[nH]c(CN2CC(c3ccccn3)C2)cn2c(C3CCOCC3)ncc12` [Compound 62, 6-[[3-(2-pyridyl)azetidin-1-yl]methyl]-3-tetrahydropyran-4-yl-7h-imidazo[1,5-a]pyrazin-8-one], the pIC50 is 7.11.

As for `O=c1[nH]c(CN2CC(Oc3ccc(F)cc3)C2)cn2c(-c3ccc(F)cc3)ncc12` [Compound 63, 6-[[3-(4-fluorophenoxy)azetidin-1-yl]methyl]-3-(4-fluorophenyl)-7h-imidazo[1,5-a]pyrazin-8-one], the pIC50 under setting [1] was 7.89.

For the molecule `O=c1[nH]c(CN2CC(Oc3ccc(OC(F)(F)F)cc3)C2)cn2c(C3CCOCC3)ncc12` [Compound 64, 3-tetrahydropyran-4-yl-6-[[3-[4-(trifluoromethoxy)phenoxy]azetidin-1-yl]methyl]-7h-imidazo[1,5-a]pyrazin-8-one], the pIC50 under setting [1] was 7.89.

Take `O=c1[nH]c(CN2CC(Oc3cccc(F)n3)C2)cn2c(C3CCOCC3)ncc12` [Compound 65, 6-[[3-[(6-fluoro-2-pyridyl)oxy]azetidin-1-yl]methyl]-3-tetrahydropyran-4-yl-7h-imidazo[1,5-a]pyrazin-8-one]: the pIC50 under setting [1] was 7.04.

Regarding `O=c1[nH]c(CN2CCC(Nc3ccccc3)C2)cn2c(C3CCOCC3)ncc12` (centres unmarked) [Compound 66, 6-[(3-anilinopyrrolidin-1-yl)methyl]-3-tetrahydropyran-4-yl-7h-imidazo[1,5-a]pyrazin-8-one], the pIC50 under setting [1] is 7.82.

On to `O=c1[nH]c(CN2CC(OCc3ccccc3)C2)cn2c(C3CCOCC3)ncc12` [Compound 67, 6-[(3-benzyloxyazetidin-1-yl)methyl]-3-tetrahydropyran-4-yl-7h-imidazo[1,5-a]pyrazin-8-one], for which the pIC50 under setting [1] is 7.70.

In turn, `O=c1[nH]c(CN2CC(c3ccccc3)C2)cn2c(C3CCOCC3)ncc12` [Compound 68, 6-[(3-phenylazetidin-1-yl)methyl]-3-tetrahydropyran-4-yl-7h-imidazo[1,5-a]pyrazin-8-one] gave a pIC50 of 8.10.

Molecule `COc1ccc(C2CN(Cc3cn4c(C5CCOCC5)ncc4c(=O)[nH]3)C2)cc1` [Compound 69, 6-[[3-(4-methoxyphenyl)azetidin-1-yl]methyl]-3-tetrahydropyran-4-yl-7h-imidazo[1,5-a]pyrazin-8-one] showed a negative logarithm of the IC50 (pIC50) of 7.52.

For the molecule `O=c1[nH]c(CN2CC(c3ccc(C(F)(F)F)cn3)C2)cn2c(C3CCOCC3)ncc12` [Compound 70, 3-tetrahydropyran-4-yl-6-[[3-[5-(trifluoromethyl)-2-pyridyl]azetidin-1-yl]methyl]-7h-imidazo[1,5-a]pyrazin-8-one], the negative-log IC50 (pIC50) was 8.00.

In turn, `O=c1[nH]c(CN2CC(Oc3cccc(F)c3)C2)cn2c(C3CCOCC3)ncc12` [Compound 71, 6-[[3-(3-fluorophenoxy)azetidin-1-yl]methyl]-3-tetrahydropyran-4-yl-7h-imidazo[1,5-a]pyrazin-8-one] had a pIC50 of 8.15.

For `O=c1[nH]c(CN2CC(Oc3cnc4ccccc4n3)C2)cn2c(C3CCOCC3)ncc12` [Compound 72, 6-[(3-quinoxalin-2-yloxyazetidin-1-yl)methyl]-3-tetrahydropyran-4-yl-7h-imidazo[1,5-a]pyrazin-8-one], the pIC50 under setting [1] was 6.86.

For `O=c1[nH]c(CN2CC(Oc3ccccc3)C2)cn2c(-c3ccc(F)cc3)ncc12` [Compound 73, 3-(4-fluorophenyl)-6-[(3-phenoxyazetidin-1-yl)methyl]-7h-imidazo[1,5-a]pyrazin-8-one], the pIC50 under setting [1] was 6.75.

For the origin of these results see patent US9643970B2, “Substituted imidazo [1,5-a]pyrazines as PDE9 inhibitors” (H Lundbeck A/S, priority 2012, dated 2017).
